# Test results from article PMC12077191, “Aeromonas hydrophila RTX adhesin has three ligand-binding domains that give the bacterium the potential to adhere to and aggregate a wide variety of cell types” (mBio, 2025).
# Columns and labels:
# [1] = molecular target: T1, AhLap RTX adhesin, carbohydrate-binding module (AhLapCBM3) (Aeromonas hydrophila, UniProt A0KNW4); assay: isothermal titration calorimetry at […] °C; also glycan array; design: gene AHA_3491; AhLapCBM3, three-domain construct Asn3455 to Gly3940 (extender domain, split domain and CBM), His-tagged
# [2] = molecular target: T1, AhLap RTX adhesin, carbohydrate-binding module (AhLapCBM3); assay: printed mammalian glycan array (CFG v5.[…]), GFP fluorescence; design: gene AHA_3491; GFP-tagged AhLapCBM3 (Asn3455 to Gly3940)
# [3] = molecular target: T1, AhLap RTX adhesin, carbohydrate-binding module (AhLapCBM3); assay: isothermal titration calorimetry at […] °C; […] also blocks binding to cells; design: gene AHA_3491; AhLapCBM3, three-domain construct Asn3455 to Gly3940 (extender domain, split domain and CBM), His-tagged
structure (smiles),measurement,setting,value
CC(=O)N[C@@H]1[C@@H](O[C@@H]2O[C@H](CO)[C@H](O)[C@H](O)[C@H]2O[C@@H]2O[C@@H](C)[C@@H](O)[C@@H](O)[C@@H]2O)[C@H](O[C@@H]2O[C@@H](C)[C@@H](O)[C@@H](O)[C@@H]2O)[C@@H](CO)O[C@H]1O [Lewis B antigen],Kd,[1],20.8 µM
CC(=O)N[C@H]1C(O)O[C@H](CO)[C@@H](O[C@@H]2O[C@H](CO)[C@H](O)[C@H](O)[C@H]2O[C@@H]2O[C@@H](C)[C@@H](O)[C@@H](O)[C@@H]2O)[C@@H]1O[C@@H]1O[C@@H](C)[C@@H](O)[C@@H](O)[C@@H]1O (mixture of isomers) [Lewis Y antigen],"printed mammalian glycan array (CFG v5.4), GFP fluorescence",[2],Strong binding was observed to the Lewis B and Lewis Y antigens
C[C@@H]1OC(O)[C@@H](O)[C@H](O)[C@@H]1O (stereo partly drawn) [L-fucose],Kd,[3],~386 µM
